IC50 data for 22 molecules are collected here from the Kinase Knowledgebase extract (Sharma et al. 2016).

Some targets named below: MAPK14 (UniProt Q16539); EGFR (UniProt P00533); CDK2 (UniProt P24941).
Another assay has as its target PIK3CA (human) (UniProt P42336). The experiment in a line: Inhibition of PIK3CA Kinase Activity.
Another assay has as its target PIK3CG (UniProt P48736). The experiment in a line: Inhibition of PIK3CG Kinase Activity.
Assay [1] deals with PIK3CB (Human) (UniProt P42338). The experiment in a line: Inhibition of Platelet Thrombus Formation under Flow.
The target is the same in assay [2]. The assay is described as follows: Inhibition of U937 Cell Proliferation.
The target is the same in assay [3]. The assay is described as follows: Assessment of Neutrophil ROS Response in Human Whole Blood. To be noted: neutrophils.
For assay [4] the target is unchanged. The assay is described as follows: Inhibition of CD9 Antibody Induced Platelet Aggregation.
Another assay deals with PIK3CD (Human) (UniProt O00329). The assay is described as follows: Inhibition of PIK3CD Kinase Activity.

The IC50 is the concentration at which inhibition is half-maximal. Read a low IC50 as higher potency.

Sequence of PIK3CD (Human) (O00329 whole entry, looked up): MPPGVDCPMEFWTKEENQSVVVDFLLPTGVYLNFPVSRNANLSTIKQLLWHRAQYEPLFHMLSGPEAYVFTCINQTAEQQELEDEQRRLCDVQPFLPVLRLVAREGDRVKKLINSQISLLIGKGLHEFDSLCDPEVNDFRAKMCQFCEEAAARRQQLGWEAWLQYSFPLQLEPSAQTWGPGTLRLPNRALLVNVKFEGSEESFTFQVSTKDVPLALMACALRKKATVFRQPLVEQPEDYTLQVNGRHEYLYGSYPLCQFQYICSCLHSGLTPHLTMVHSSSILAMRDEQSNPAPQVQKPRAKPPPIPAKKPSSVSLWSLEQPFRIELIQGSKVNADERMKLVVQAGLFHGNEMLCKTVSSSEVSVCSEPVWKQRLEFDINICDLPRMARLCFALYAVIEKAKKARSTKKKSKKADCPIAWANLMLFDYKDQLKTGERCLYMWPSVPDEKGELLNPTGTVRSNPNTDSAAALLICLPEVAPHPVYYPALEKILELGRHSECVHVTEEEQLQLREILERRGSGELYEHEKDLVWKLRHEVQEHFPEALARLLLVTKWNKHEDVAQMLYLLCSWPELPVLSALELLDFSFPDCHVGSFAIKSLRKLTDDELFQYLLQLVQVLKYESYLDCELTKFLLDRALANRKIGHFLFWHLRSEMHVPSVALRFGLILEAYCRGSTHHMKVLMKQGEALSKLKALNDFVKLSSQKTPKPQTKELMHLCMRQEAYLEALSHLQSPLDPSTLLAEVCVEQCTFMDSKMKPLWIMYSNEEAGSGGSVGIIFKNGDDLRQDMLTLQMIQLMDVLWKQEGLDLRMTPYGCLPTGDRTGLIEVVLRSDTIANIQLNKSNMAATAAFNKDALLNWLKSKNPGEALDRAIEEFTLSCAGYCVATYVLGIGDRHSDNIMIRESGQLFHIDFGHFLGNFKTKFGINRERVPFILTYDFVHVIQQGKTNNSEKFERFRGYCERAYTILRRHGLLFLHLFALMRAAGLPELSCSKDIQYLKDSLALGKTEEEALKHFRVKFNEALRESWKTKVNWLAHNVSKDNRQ
Sequence of PIK3CA (human) (P42336 whole entry, looked up): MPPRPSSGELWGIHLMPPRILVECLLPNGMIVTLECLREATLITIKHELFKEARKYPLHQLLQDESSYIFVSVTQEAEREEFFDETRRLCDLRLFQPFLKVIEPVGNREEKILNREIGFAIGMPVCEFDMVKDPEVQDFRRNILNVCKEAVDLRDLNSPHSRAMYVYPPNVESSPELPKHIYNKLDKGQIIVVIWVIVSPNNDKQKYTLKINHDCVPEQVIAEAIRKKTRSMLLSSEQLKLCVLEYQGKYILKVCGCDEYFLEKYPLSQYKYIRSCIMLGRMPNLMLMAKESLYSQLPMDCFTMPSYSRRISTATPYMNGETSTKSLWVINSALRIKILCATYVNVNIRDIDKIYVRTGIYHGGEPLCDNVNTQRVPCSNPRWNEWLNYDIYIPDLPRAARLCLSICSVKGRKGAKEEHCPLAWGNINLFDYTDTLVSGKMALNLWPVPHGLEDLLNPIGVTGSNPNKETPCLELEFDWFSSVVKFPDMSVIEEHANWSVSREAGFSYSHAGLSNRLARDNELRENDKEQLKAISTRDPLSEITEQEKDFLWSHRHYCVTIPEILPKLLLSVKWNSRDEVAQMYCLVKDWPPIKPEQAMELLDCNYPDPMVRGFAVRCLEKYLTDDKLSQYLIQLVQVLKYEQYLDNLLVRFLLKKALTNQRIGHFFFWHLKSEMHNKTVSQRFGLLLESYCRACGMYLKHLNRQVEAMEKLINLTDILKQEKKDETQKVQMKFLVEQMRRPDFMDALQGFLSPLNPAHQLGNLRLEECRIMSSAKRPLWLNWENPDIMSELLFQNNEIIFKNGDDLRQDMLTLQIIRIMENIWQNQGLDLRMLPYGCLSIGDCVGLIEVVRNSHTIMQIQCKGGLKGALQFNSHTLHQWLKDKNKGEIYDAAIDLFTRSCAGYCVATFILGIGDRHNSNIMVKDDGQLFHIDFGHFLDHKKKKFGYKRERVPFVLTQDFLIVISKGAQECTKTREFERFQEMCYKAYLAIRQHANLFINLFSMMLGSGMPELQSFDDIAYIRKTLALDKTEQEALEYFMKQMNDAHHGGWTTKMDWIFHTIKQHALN
Sequence of PIK3CG (P48736 whole entry, looked up): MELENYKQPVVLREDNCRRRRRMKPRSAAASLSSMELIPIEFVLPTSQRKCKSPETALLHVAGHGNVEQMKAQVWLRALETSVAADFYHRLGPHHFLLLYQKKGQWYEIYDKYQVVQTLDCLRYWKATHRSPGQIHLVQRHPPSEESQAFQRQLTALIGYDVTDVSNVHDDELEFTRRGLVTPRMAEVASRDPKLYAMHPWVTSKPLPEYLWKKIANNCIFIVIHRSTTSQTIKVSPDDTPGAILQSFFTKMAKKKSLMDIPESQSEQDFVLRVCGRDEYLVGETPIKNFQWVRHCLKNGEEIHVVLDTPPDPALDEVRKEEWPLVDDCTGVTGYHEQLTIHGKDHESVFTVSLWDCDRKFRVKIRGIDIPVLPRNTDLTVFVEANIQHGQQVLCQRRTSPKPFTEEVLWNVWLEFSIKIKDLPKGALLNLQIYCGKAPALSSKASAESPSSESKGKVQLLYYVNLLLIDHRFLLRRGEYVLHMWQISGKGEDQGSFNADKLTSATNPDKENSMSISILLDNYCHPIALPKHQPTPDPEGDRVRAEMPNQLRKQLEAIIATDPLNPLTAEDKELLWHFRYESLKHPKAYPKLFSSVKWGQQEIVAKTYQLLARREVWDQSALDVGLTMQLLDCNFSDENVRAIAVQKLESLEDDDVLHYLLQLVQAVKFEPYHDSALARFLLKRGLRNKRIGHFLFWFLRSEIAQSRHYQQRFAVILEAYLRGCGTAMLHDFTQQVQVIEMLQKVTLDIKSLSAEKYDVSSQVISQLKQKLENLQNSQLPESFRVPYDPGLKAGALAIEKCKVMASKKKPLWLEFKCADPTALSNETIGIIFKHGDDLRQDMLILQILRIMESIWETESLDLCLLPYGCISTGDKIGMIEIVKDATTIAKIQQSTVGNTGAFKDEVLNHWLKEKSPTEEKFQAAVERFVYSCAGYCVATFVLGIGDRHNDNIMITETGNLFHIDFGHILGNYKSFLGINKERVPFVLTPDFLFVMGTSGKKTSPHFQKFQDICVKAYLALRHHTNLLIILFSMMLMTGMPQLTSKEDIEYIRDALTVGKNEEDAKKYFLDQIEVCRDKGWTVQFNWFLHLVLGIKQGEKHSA
Sequence of PIK3CB (Human) (P42338 whole entry, looked up): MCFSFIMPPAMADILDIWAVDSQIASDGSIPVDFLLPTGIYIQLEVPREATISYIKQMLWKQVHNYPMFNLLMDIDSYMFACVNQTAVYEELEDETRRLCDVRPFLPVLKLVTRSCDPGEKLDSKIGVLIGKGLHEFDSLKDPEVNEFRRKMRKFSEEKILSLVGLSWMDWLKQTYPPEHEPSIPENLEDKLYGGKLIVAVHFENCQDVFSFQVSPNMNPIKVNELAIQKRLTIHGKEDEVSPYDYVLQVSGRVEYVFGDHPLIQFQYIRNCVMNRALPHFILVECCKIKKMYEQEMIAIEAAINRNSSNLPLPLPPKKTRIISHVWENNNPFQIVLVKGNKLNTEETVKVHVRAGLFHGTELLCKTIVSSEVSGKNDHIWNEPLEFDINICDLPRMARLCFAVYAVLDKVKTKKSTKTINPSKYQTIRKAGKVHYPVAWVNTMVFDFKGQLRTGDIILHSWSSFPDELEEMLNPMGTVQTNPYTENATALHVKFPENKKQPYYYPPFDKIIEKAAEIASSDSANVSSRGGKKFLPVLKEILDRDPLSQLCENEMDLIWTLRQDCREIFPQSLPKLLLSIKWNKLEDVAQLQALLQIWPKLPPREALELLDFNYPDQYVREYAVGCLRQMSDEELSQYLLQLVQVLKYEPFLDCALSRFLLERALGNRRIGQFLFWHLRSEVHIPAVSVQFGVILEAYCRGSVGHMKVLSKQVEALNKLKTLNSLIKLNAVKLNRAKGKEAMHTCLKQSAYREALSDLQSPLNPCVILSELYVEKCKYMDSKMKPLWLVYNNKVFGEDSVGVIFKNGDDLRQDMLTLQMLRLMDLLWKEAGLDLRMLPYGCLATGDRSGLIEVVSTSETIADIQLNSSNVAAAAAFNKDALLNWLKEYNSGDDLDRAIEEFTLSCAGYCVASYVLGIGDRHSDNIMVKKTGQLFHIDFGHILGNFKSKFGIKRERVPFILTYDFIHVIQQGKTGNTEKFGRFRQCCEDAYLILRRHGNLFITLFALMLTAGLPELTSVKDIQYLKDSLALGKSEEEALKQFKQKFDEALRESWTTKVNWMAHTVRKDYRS
Sequence of MAPK14 (Q16539 whole entry, looked up): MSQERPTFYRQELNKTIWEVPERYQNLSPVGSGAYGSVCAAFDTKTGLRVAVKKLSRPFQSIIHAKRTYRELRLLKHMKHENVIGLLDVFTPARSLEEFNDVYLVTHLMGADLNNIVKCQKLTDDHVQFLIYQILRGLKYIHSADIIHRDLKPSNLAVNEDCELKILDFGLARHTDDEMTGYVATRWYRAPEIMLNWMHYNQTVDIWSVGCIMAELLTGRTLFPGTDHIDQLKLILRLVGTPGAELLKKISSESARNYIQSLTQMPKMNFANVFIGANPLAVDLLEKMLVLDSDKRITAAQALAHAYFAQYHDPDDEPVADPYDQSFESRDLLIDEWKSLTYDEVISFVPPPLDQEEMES

At PIK3CA (human), `Cc1cc(C(C)Nc2cc(F)cc(F)c2)c2nc(N3CCOCC3)cc(=O)n2c1` (stereo not drawn) yielded an IC50 above 5 µM.
At PIK3CG, `Cc1cc(C(C)Oc2ccccc2)c2oc(-c3ccncc3)cc(=O)c2c1` (stereo not drawn) yielded an IC50 of 20 µM.
On the same count and under the same terms, the value for `Cc1cc(COc2ccccc2)c2oc(-c3ccncc3)cc(=O)c2c1` was 10 µM.
As for `Cc1cc(C(C)Nc2ccccc2)c2oc(-c3ccncc3)cc(=O)c2c1` (stereo not drawn), the IC50 at PIK3CB (Human) [1] amounted to 0.5 µM; against PIK3CB (Human) [2] it was 5 µM; against PIK3CB (Human) [3] it was 0.005 µM; against PIK3CB (Human) [4] it was 0.1 µM.
On to `Cc1cc(-c2ccccc2)c2nc(-c3ccncc3)cc(=O)n2c1`, for which the IC50 against PIK3CG and against PIK3CD (Human) was above 10 µM in each case.
Molecule `Cc1cc(C(C)Nc2cccc(C(F)(F)F)c2)c2nc(N3CCOCC3)cc(=O)n2c1` (stereo not drawn) had a 50% inhibitory concentration (IC50) at PIK3CA (human) above 5 µM.
In turn, `Cc1cc(C(C)Nc2cccc(C(F)(F)F)c2)c2oc(-c3ccncc3)cc(=O)c2c1` (stereo not drawn) showed an IC50 against PIK3CG of 10 µM. This counts as double-digit micromolar.
With `Cc1cc(C(C)Nc2ccc(Cl)cc2)c2nc(N3CCOCC3)cc(=O)n2c1` (stereo not drawn), the concentration for half-maximal inhibition (IC50) at PIK3CA (human) is above 5 µM.
Take `Cc1cccc(NC(C)c2cc(C)cn3c(=O)cc(N4CCOCC4)nc23)c1` (stereo not drawn): the half-maximal inhibitory concentration (IC50) against PIK3CA (human) was above 5 µM.
For `CC(=O)Nc1ccccc1NCc1cc(C)cc2c(=O)cc(-c3ccncc3)oc12`, the IC50 against PIK3CG turned out to be 5 µM; against PIK3CD (Human) it was 1 µM.
`O=c1cc(-c2ccncc2)[nH]c2c(-c3ccccc3)cccc12` gave a half-maximal inhibitory concentration (IC50) against PIK3CD (Human) of 10 µM. That is a double-digit micromolar value.
`O=c1cc(-c2ccncc2)oc2c(OCc3ccccc3)cccc12` gave an IC50 at PIK3CG of 10 µM.
Turning to `Cc1cc(C(C)Nc2ccccc2)c2nc(N3CCOCC3)cc(=O)n2c1` (stereo not drawn), the IC50 at MAPK14 was above 10 µM; at EGFR, above 10 µM; on CDK2 it was above 10 µM; on PIK3CA (human), above 5 µM.
For the molecule `O=c1cc(-c2ccncc2)oc2c(NCc3ccccc3)cccc12`, the IC50 against PIK3CD (Human) was 0.2 µM.
At PIK3CA (human), `Cc1cc(C(C)Nc2ccc(Cl)c(Cl)c2)c2nc(N3CCOCC3)cc(=O)n2c1` (stereo not drawn) came in with a concentration for half-maximal inhibition (IC50) above 5 µM.
`Cc1cc(CNc2ccccc2)c2oc(-c3ccncc3)cc(=O)c2c1`: the IC50 against PIK3CG and on PIK3CD (Human) was 10 µM throughout.
Regarding `Cc1cc(C(C)n2c(C(F)(F)F)nc3ccccc32)c2oc(-c3ccncc3)cc(=O)c2c1` (stereo not drawn), the IC50 against PIK3CG and against PIK3CD (Human) was 10 µM in each case.
Regarding `Cc1cc(CN(C)c2ccccc2)c2nc(N3CCOCC3)cc(=O)n2c1`, the IC50 at PIK3CA (human) is above 5 µM.
Consider `Cc1cc(N[C@H](C)c2ccccc2)c2nc(-c3ccncc3)cc(=O)n2c1`, for which the IC50 on PIK3CG came out at 20 µM; at PIK3CD (Human), 1 µM.
In the case of `Cc1cc(C(C)Nc2cccc(Cl)c2)c2nc(N3CCOCC3)cc(=O)n2c1` (stereo not drawn), the half-maximal inhibitory concentration (IC50) against PIK3CA (human) is above 5 µM.
On the same count and under the same terms, the same measure for `Cc1cc(C(C)Nc2ccccn2)c2nc(N3CCOCC3)cc(=O)n2c1` (stereo not drawn): above 5 µM.
`CC(Nc1ccccc1N)c1cccc2c(=O)cc(-c3ccncc3)oc12` (stereo not drawn): the IC50 against PIK3CB (Human) [1] was determined as 0.25 µM; against PIK3CG it was 15 µM; against PIK3CB (Human) [2], 20 µM; on PIK3CB (Human) [3], 0.078 µM; on PIK3CB (Human) [4], 0.2 µM; against PIK3CD (Human), 0.5 µM.
